US7592308B2, “F3W variants of the lantibiotic mersacidin and its use” (priority 2004, dated 2009)
In brackets after ≈: the same amount, converted by molar mass. Entries after “also recorded” stand apart in the source; their conditions may differ. Read-outs that look alike come from different tables or passages of the source. Square brackets hold non-standard residues; d marks the D form. Ends that are not written are not given here. Dhb = C/C=C(\N)C(=O)O; Dha = C=C(N)C(=O)O

What was measured:
E. faecium 7131121 = experiment: MIC, two-fold serial dilution in broth; assay type: cell-based, Enterococcus faecium; settings: duplicate
Method: (§1) A selection of the variants produced in Example 1 above were tested further for activity against a range of bacteria. Minimum inhibitory concentrations (MICs) for all organisms with the exception of Streptococcus pneumoniae were determined by two-fold serial antibiotic dilutions in Mueller-Hinton broth (MHB) supplemented with 50 μg/ml calcium as calcium chloride dihydrate. Minimum inhibitory concentrations (MICs) for S. pneumoniae were determined by two-fold serial antibiotic dilutions in Brain Heart Infusion (BHI) broth supplemented with 50 μg/ml calcium as calcium chloride dihydrate. Antimicrobial agent stock solutions were prepared and stored according to NCCLS standard M7-A6.
(§2) Actively growing broth cultures were diluted to contain […] by adjusting to an absorbance of 0.2-0.3 at 600 nm, equivalent to the McFarland 0.5 standard. They were then diluted a further 1:100 in broth. The assays were performed in duplicate in sterile 96-well microtitre plates in a total volume of 200 μl (160 μl broth, 20 μl antibiotic, 20 μl inoculum) in a concentration range from 64 μg/ml to 0.06 μg/ml. The 12th well of the microtitre plate contained no antimicrobial agent. Vancomycin was used as a reference antibiotic for quality control. Plates were incubated aerobically, shaking, for 18-20 hours at 37° C. with the MIC defined as the lowest concentration of drug that produced no visible growth.

S. aureus SH1000 = assay type: cell-based, Staphylococcus aureus
Method: as §1, §2

E. faecalis 29212 = experiment: MIC, two-fold serial dilution in broth; assay type: cell-based, Enterococcus faecalis; settings: duplicate
Method: as §1, §2

S. pneumoniae R6 = assay type: cell-based, Streptococcus pneumoniae; settings: Table 8B; BHI broth + 50 μg/ml calcium; duplicate
Method: as §1, §2

M. luteus 4698 = assay type: cell-based, Micrococcus luteus
Method: as §1, §2

M. luteus = settings: data of Szekat et al., cited from earlier work; for fold greater MIC measured against M. luteus: compared with mersacidin
E. faecium 19579 = experiment: MIC, two-fold serial dilution in broth; assay type: cell-based, Enterococcus faecium; settings: duplicate
Method: as §1, §2

E. faecium BM4147 = experiment: MIC test, further organisms; assay type: cell-based, Enterococcus faecium; settings: Table 10; duplicate
Method: (§3) MIC tests were performed with some of the variants of Example 2 on a range of other organisms. The results are shown in Tables 9 and 10 (figures in μg/ml): […]

S. aureus COL = assay type: cell-based, Staphylococcus aureus; settings: Table 10; duplicate
Method: as §3

S. aureus Mu50 = experiment: MIC test, further organisms; assay type: cell-based, Staphylococcus aureus; settings: Table 10; duplicate
Method: as §3

S. aureus LT 1012-13 = experiment: MIC test, further organisms; assay type: cell-based, Staphylococcus aureus; settings: Table 10; duplicate
Method: as §3

S. aureus COL MRSA = assay type: cell-based, Staphylococcus aureus
Method: as §3

S. aureus 1012-13 MRSA = assay type: cell-based, Staphylococcus aureus
Method: as §3

S. aureus CS = assay type: cell-based, Staphylococcus aureus
Method: as §3

S. aureus SG511 = assay type: cell-based, Staphylococcus aureus
Method: as §3

S. pyogenes 13608 = assay type: cell-based, Streptococcus pyogenes
Method: as §3

S. pyogenes 16205 = assay type: cell-based, Streptococcus pyogenes
Method: as §3

E. faecium 4147-1 = assay type: cell-based, Enterococcus faecium
Method: as §3

E. faecium 4147 VRE = assay type: cell-based, Enterococcus faecium
Method: as §3

S. aureus R33 = assay type: cell-based, Staphylococcus aureus; settings: Table 8A; MHB + 50 μg/ml calcium; duplicate
Method: as §1, §2

[1] = Table 8A, MHB + 50 μg/ml calcium
[2] = Table 8A, MHB + 50 μg/ml calcium, duplicate
[3] = Table 8B, MHB + 50 μg/ml calcium, duplicate

G7A: mersacidin variant (CTFTLPAGGGVCTLT[Dha]ECIC; thioether (positions not given here); not fully specified; UniProt P43683 49-68, looked up, variant G7A)
MIC E. faecium 7131121 (E. faecium 7131121; [1]): >64, >64 μg/ml
MIC S. aureus SH1000 (S. aureus SH1000; [2]): >64, >64 μg/ml
MIC E. faecalis 29212 (E. faecalis 29212; [1]): >64, >64 μg/ml
MIC S. pneumoniae R6 (S. pneumoniae R6): >64, >64 μg/ml

G7N: mersacidin variant (CTFTLPNGGGVCTLT[Dha]ECIC; thioether (positions not given here); not fully specified; UniProt P43683 49-68, looked up, variant G7N)
MIC M. luteus 4698 (M. luteus 4698; [3]): <4, <4 μg/ml
MIC E. faecalis 29212 (E. faecalis 29212; [1]): >64, >64 μg/ml

mersacidin E17A (CTFTLPGGGGVCTLT[Dha]ACIC; thioether (positions not given here); not fully specified; UniProt P43683 49-68, looked up, variant E17A) [mersacidin variant produced by Szekat et al]
antibacterial activity (in words) (M. luteus): essentially inactive; also recorded: no antibacterial activity
fold greater MIC measured against M. luteus (M. luteus): about 1,000 fold

C=C1NC(=O)C2NC(=O)[C@H](CC(C)C)NC(=O)C(NC(=O)[C@@H]3CSC(C)C(NC(=O)[C@H](Cc4ccccc4)NC(=O)C4NC(=O)[C@@H](N)CSC4C)C(=O)N[C@@H](CC(C)C)C(=O)N4CCC[C@H]4C(=O)NCC(=O)N[C@@H](Cc4c[nH]cn4)C(=O)NCC(=O)NCC(=O)N[C@@H](C(C)C)C(=O)N3)C(C)SC[C@H](NC(=O)[C@H](CCC(=O)O)NC1=O)C(=O)N[C@@H]([C@@H](C)CC)C(=O)NC=CSC2C (some centres unmarked) [G8H]
MIC E. faecium 7131121 (E. faecium 7131121; Table 11): >64, >64 μg/ml
MIC E. faecium 19579 (E. faecium 19579; Table 11): >64, >64 μg/ml
MIC S. aureus SH1000 (S. aureus SH1000; SH1000): 64, >64 μg/ml
MIC E. faecalis 29212 (E. faecalis 29212; Table 11): >64, >64 μg/ml

G10Y: mersacidin variant (CTFTLPGGGYVCTLT[Dha]ECIC; thioether (positions not given here); not fully specified; UniProt P43683 49-68, looked up, variant G10Y)
MIC S. aureus SH1000 (S. aureus SH1000; [2]): >64, >64 μg/ml
MIC M. luteus 4698 (M. luteus 4698; [3]): <4, <4 μg/ml
MIC S. pneumoniae R6 (S. pneumoniae R6): <4, <4 μg/ml

P6N: mersacidin variant (CTFTLNGGGGVCTLT[Dha]ECIC; thioether (positions not given here); not fully specified; UniProt P43683 49-68, looked up, variant P6N)
MIC E. faecium BM4147 (E. faecium BM4147): >32, >32 μg/ml
MIC S. aureus COL (S. aureus COL): >32, >32 μg/ml
MIC S. aureus Mu50 (S. aureus Mu50): >32, >32 μg/ml
MIC S. aureus LT 1012-13 (S. aureus LT 1012-13): >32, >32 μg/ml

F3L: mersacidin variant produced by Szekat et al. (CTLTLPGGGGVCTLT[Dha]ECIC; thioether (positions not given here); not fully specified; UniProt P43683 49-68, looked up, variant F3L)
MIC against M. luteus (M. luteus): 12.5 mg/L
antibacterial activity (in words) (M. luteus): weakly active

C=C1NC(=O)C2NC(=O)[C@H](CC(C)C)NC(=O)C(NC(=O)[C@@H]3CSC(C)C(NC(=O)[C@H](Cc4ccccc4)NC(=O)C4NC(=O)[C@@H](N)CSC4C)C(=O)N[C@@H](CC(C)C)C(=O)N4CCC[C@H]4C(=O)NCC(=O)NCC(=O)N[C@@H](CC(N)=O)C(=O)NCC(=O)N[C@@H](C(C)C)C(=O)N3)C(C)SC[C@H](NC(=O)[C@H](CCC(=O)O)NC1=O)C(=O)N[C@@H]([C@@H](C)CC)C(=O)NC=CSC2C (some centres unmarked) [G9N]
MIC E. faecium 7131121 (E. faecium 7131121; [1]): >64, >64 μg/ml
MIC E. faecium 19579 (E. faecium 19579; [1]): >64, >64 μg/ml
MIC S. aureus SH1000 (S. aureus SH1000; [2]): >64, >64 μg/ml
MIC E. faecalis 29212 (E. faecalis 29212; [1]): >64, >64 μg/ml
MIC S. pneumoniae R6 (S. pneumoniae R6): >64, >64 μg/ml

C=C1NC(=O)C2NC(=O)[C@H](CC(C)C)NC(=O)C(NC(=O)[C@@H]3CSC(C)C(NC(=O)[C@H](Cc4ccccc4)NC(=O)C4NC(=O)[C@@H](N)CSC4C)C(=O)N[C@@H](CC(C)C)C(=O)N[C@@H](C)C(=O)NCC(=O)NCC(=O)NCC(=O)NCC(=O)N[C@@H](C(C)C)C(=O)N3)C(C)SC[C@H](NC(=O)[C@H](CCC(=O)O)NC1=O)C(=O)N[C@@H]([C@@H](C)CC)C(=O)NC=CSC2C (some centres unmarked) [P6A]
MIC S. aureus COL MRSA (S. aureus COL MRSA): 64 µg/mL (≈ 35.6 µM)
MIC S. aureus 1012-13 MRSA (S. aureus 1012-13 MRSA): 32 µg/mL (≈ 17.8 µM)
MIC S. aureus CS (S. aureus CS): 32 µg/mL (≈ 17.8 µM)
MIC S. aureus SG511 (S. aureus SG511): 8 µg/mL (≈ 4.44 µM)
MIC S. pyogenes 13608 (S. pyogenes 13608): 4 µg/mL (≈ 2.22 µM)
MIC S. pyogenes 16205 (S. pyogenes 16205): 8 µg/mL (≈ 4.44 µM)
MIC M. luteus 4698 (M. luteus 4698; 4698): 4 µg/mL (≈ 2.22 µM)
MIC E. faecium 4147-1 (E. faecium 4147-1; 4147-1): 256 µg/mL (≈ 142 µM)
MIC E. faecium 4147 VRE (E. faecium 4147 VRE; Table 9, 16 h): 128-16 h, μg/ml
MIC E. faecium 4147 VRE (E. faecium 4147 VRE; Table 9, 24 h): 256-24 h μg/ml

G8Q: mersacidin variant (CTFTLPGQGGVCTLT[Dha]ECIC; thioether (positions not given here); not fully specified; UniProt P43683 49-68, looked up, variant G8Q)
MIC E. faecium 7131121 (E. faecium 7131121; [1]): >64, >64 μg/ml
MIC E. faecium 19579 (E. faecium 19579; [1]): >64, >64 μg/ml
MIC S. aureus SH1000 (S. aureus SH1000; [2]): >64, >64 μg/ml
MIC E. faecalis 29212 (E. faecalis 29212; [1]): >64, >64 μg/ml

CC[C@H](C)[C@@H]1NC(=O)[C@@H]2CSC(C)C(NC(=O)[C@@H]3CSC(C)C(NC(=O)[C@H](Cc4ccccc4)NC(=O)C4NC(=O)[C@@H](N)CSC4C)C(=O)N[C@@H](CC(C)C)C(=O)N4CCC[C@H]4C(=O)NCC(=O)NCC(=O)NCC(=O)NCC(=O)N[C@@H](C(C)C)C(=O)N3)C(=O)N[C@@H](CC(C)C)C(=O)NC(C(=O)N[C@@H](Cc3c[nH]cn3)C(=O)N[C@@H](CCC(=O)O)C(=O)N2)C(C)SC=CNC1=O (some centres unmarked) [Dha16H]
MIC S. aureus COL MRSA (S. aureus COL MRSA): 64 µg/mL (≈ 33.8 µM)
MIC S. aureus 1012-13 MRSA (S. aureus 1012-13 MRSA): 64 µg/mL (≈ 33.8 µM)
MIC S. aureus CS (S. aureus CS): 64 µg/mL (≈ 33.8 µM)
MIC S. aureus SG511 (S. aureus SG511): 8 µg/mL (≈ 4.22 µM)
MIC S. pyogenes 13608 (S. pyogenes 13608): 4 µg/mL (≈ 2.11 µM)
MIC S. pyogenes 16205 (S. pyogenes 16205): 4 µg/mL (≈ 2.11 µM)
MIC M. luteus 4698 (M. luteus 4698; 4698): 4 µg/mL (≈ 2.11 µM)
MIC E. faecium 4147-1 (E. faecium 4147-1; Table 9, 16 h): 128-16 h, μg/ml
MIC E. faecium 4147-1 (E. faecium 4147-1; Table 9, 23 h): 256-23 h μg/ml
MIC E. faecium 4147 VRE (E. faecium 4147 VRE; 4147 VRE): 128 µg/mL (≈ 67.6 µM)

C=C1NC(=O)C2NC(=O)[C@H](CC(C)C)NC(=O)C(NC(=O)[C@@H]3CSC(C)C(NC(=O)[C@H](Cc4ccccc4)NC(=O)C4NC(=O)[C@@H](N)CSC4C)C(=O)N[C@@H](CC(C)C)C(=O)N4CCC[C@H]4C(=O)NCC(=O)NCC(=O)NCC(=O)N[C@@H](C)C(=O)N[C@@H](C(C)C)C(=O)N3)C(C)SC[C@H](NC(=O)[C@H](CCC(=O)O)NC1=O)C(=O)N[C@@H]([C@@H](C)CC)C(=O)NC=CSC2C (some centres unmarked) [G10A]
MIC E. faecium 7131121 (E. faecium 7131121; [1]): >64, >64 μg/ml
MIC E. faecium 19579 (E. faecium 19579; [1]): >64, >64 μg/ml
MIC S. aureus R33 (S. aureus R33): >64, >64 μg/ml
MIC S. aureus SH1000 (S. aureus SH1000; [2]): >64, >64 μg/ml
MIC E. faecalis 29212 (E. faecalis 29212; [1]): >64, >64 μg/ml

mersacidin L14I Dha16Dhb (CTFTLPGGGGVCTIT[Dhb]ECIC; thioether (positions not given here); not fully specified; UniProt P43683 49-68, looked up, variant L14I S16T) [mersacidin double variant]
MIC E. faecium 7131121 (E. faecium 7131121; Table 18, double variants): >64, >64 μg/ml
MIC E. faecalis 29212 (E. faecalis 29212; Table 18, double variants): >64, >64 μg/ml

S16I: mersacidin variant produced by Szekat et al. (CTFTLPGGGGVCTLTIECIC; thioether (positions not given here); not fully specified; UniProt P43683 49-68, looked up, variant S16I)
antibacterial activity (in words) (M. luteus): essentially inactive
fold greater MIC measured against M. luteus (M. luteus): about 1,000 fold
